According to patent publication US6627657B1 (priority 2000, dated 2003):
Where two headings read alike, the source gives them in different places.

System: Zygosaccharomyces bailii ATCC 60483
Type: cell-based
Conditions: 30 seconds
Procedure: The rate at which a composition of the invention killed a test organism was measured by inoculating use solutions with a test organism and then quantifying survivors after various exposure times. Ninety-nine mL of each use solution was transferred to a 250 mL Erlenmeyer flask and allowed to equilibrate to test temperature. The liquid in the flask was swirled vigorously in a rapid circular motion and 1 mL of a suspension of the test organism was added.
After the exposure time, 1 mL quantities of the use solution/test organism mixture were transferred to 9 mL of the use-solution neutralizer. One mL quantities of the neutralizer were pour-plated using the plating medium. Serial 10-fold or 100-fold dilutions of the neutralizer solution were also plated. Plates were incubated and then surviving microorganisms were counted. The Log10 reduction of the test organism due to the use solution was determined by comparing reduction to an untreated control set (referred to as the Inoculum Numbers).
The test method was carried out as described in Example 5.
To determine the antifungal activity of hydrogen peroxide and peroxyacetic independently and in combination with a quaternary ammonium compound, the following experimental perimeters were used. The test organism studied was Zygosaccharomyces bailii ATCC 60483.
The test temperature used was 25° C., and the exposure time was 30 seconds. The use-solution neutralizer used was 1% sodium thiosulfate/1% peptone/0.025% catalase (for POAA, H2O2), Chambers neutralizer (for quaternary ammonium compound), and 1:1 mixture of the above (for POAA/H2O2/quaternary ammonium compound).
The microorganisms were plated on Sabourad dextrose agar and incubated for 4 days at 26° C.

Compound | Log Reduction (20 ppm, pH 3, 25° C.) | Survivors (20 ppm, pH 3, 25° C.) | Log Reduction (20 ppm, pH 5, 25° C.) | Survivors (20 ppm, pH 5, 25° C.) | Log Reduction (20 ppm, pH 7, 25° C.) | Survivors (20 ppm, pH 7, 25° C.) | Log Reduction (20 ppm, pH 9, 25° C.) | Survivors (20 ppm, pH 9, 25° C.) | Log Reduction (20 ppm, pH 11, 25° C.) | Survivors (20 ppm, pH 11, 25° C.) | Log Reduction (532 ppm, pH 3, 25° C.) | Survivors (532 ppm, pH 3, 25° C.) | Log Reduction (532 ppm, pH 5, 25° C.) | Survivors (532 ppm, pH 5, 25° C.) | Log Reduction (532 ppm, pH 7, 25° C.) | Survivors (532 ppm, pH 7, 25° C.) | Log Reduction (532 ppm, pH 9, 25° C.) | Survivors (532 ppm, pH 9, 25° C.) | Log Reduction (532 ppm, pH 11, 25° C.) | Survivors (532 ppm, pH 11, 25° C.)
CCCCCCCCCC[N+](C)(C)CCCCCCCCCC.[Cl-] [Didecyl Dimethyl Ammonium Chloride] | 0.00 | 9.4 × 10^6 cfu/ml | 0.02 | 7.1 × 10^6 cfu/ml | 0.05 | 6.6 × 10^6 cfu/ml | 0.18 | 4.9 × 10^6 cfu/ml | 1.69 | 1.5 × 10^5 cfu/ml |  |  |  |  |  |  |  |  |  | 
OO [Hydrogen Peroxide] |  |  |  |  |  |  |  |  |  |  | 0.00 | 7.5 × 10^6 cfu/ml | 0.00 | 9.9 × 10^6 cfu/ml | 0.00 | 7.9 × 10^6 cfu/ml | 0.04 | 6.8 × 10^6 cfu/ml | 0.06 | 6.5 × 10^6 cfu/ml
